“And” between values parts separate entries of the source, which are not always exact repeats. Identical values can stand only once.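 Test compounds were applied to cells in 96-well plates for 48 hours at 5 doses. TGI is the concentration that stops growth completely.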
Legend:
Experiment in all cases: growth of human tumour cells (NCI), 48 h
[1] = tested on: KM20L2 colon
[2] = tested on: HOP-18 NSCLC
[3] = tested on: DMS 114 small cell lung
[4] = tested on: DLD-1 colon
[5] = tested on: SW-620 colon
[6] = tested on: DMS 273 small cell lung
[7] = tested on: M19-MEL melanoma
[8] = tested on: SNB-78 CNS
[9] = tested on: LXFL 529 NSCLC
[10] = tested on: HT29 colon
[11] = tested on: OVCAR-4 ovarian
[12] = tested on: SF-539 CNS
[13] = tested on: XF 498 CNS

| SMILES | TGI [1] [µM] | TGI [2] [µM] | TGI [3] [µM] | TGI [4] [µM] | TGI [5] | TGI [6] [µM] | TGI [7] [µM] | TGI [8] [µM] | TGI [9] [µM] | TGI [10] | TGI [11] | TGI [12] | TGI [13] [µM] |
| --- | --- | --- | --- | --- | --- | --- | --- | --- | --- | --- | --- | --- | --- |
| CC(C)(C)N=NNc1cn(C2OC(CO)C(O)C2O)c(=O)[nH]c1=O (stereo unspecified) | > 100 | > 100 | > 100 | > 100 | 34.7 µM | > 100 | > 100 | > 100 | > 100 | > 100 µM | – | – | – |
| CC(=O)OC(/C=C/c1ccccc1)P1(=O)N(CC(C)(C)C)[C@@H]2CCCC[C@H]2N1CC(C)(C)C (stereo partly specified) | – | – | – | – | 31.3 µM and 20.7 µM | – | – | – | – | 17.6 µM and 15.6 µM | 20.5 µM and 19.7 µM | 21.2 µM and 28.6 µM | – |
| CCCCC(C#N)(OP1(=O)OC(c2ccccc2)C(C)N1C)c1ccccc1 (stereo unspecified) | – | – | – | – | 34.3 µM | – | – | – | – | 33.8 µM | – | 31.2 µM | – |
| S=C(NC1=NCC(CN2CCN(c3ccccc3)CC2)O1)Nc1ccccc1 (stereo unspecified) | – | – | – | – | > 100 µM | – | – | – | – | > 100 µM | > 100 µM | > 100 µM | – |
| Nc1ncnc2c1nnn2C1C=CC(COS(N)(=O)=O)C1 (stereo unspecified) | – | – | – | – | > 100 µM | – | – | – | – | 98.5 µM | 62.3 µM | 7.39 µM | – |
| Cc1nc(C)c(C(=O)NNC(N)=S)cc1C(=O)NNC(N)=S | – | – | – | – | > 100 µM | – | – | – | – | > 100 µM | > 100 µM | > 100 µM | – |
| O=C(/C=C/c1ccc(O)c(O)c1)OCCCc1ccccc1 | – | – | – | – | 32 µM | – | – | – | – | 48.4 µM | 20.7 µM | 5.81 µM | – |
| CCOC(=O)C1=CNC(C(=O)OCC)C1c1cccn1-c1ccc(Cl)cc1[N+](=O)[O-] (stereo unspecified) | – | – | – | – | > 100 µM | – | – | – | – | 30.8 µM | 98.3 µM | 30.8 µM | – |
| Cc1[nH]c2c(c1C)S(=O)(=O)c1cc3ccccc3nc1N2 | – | – | – | – | > 100 µM | – | – | – | – | 28.2 µM | 32.4 µM | 25.2 µM | – |
| CCOC(=O)c1cc(-c2cc(OC)c(OC)c([N+](=O)[O-])c2)c([N+](=O)[O-])n1C | – | – | – | – | – | – | – | – | – | > 10 µM | > 10 µM | > 10 µM | – |
| O=C1CC2(c3ccccc3)ON=C(c3ccccc3)N2c2ccccc2N1 (stereo unspecified) | – | – | – | – | > 100 µM | – | – | – | – | > 100 µM | > 100 µM | > 100 µM | – |
| COC(=O)[C@]1(c2cc3ccccc3n2S(=O)(=O)c2ccccc2)CC2CN(C(C)=O)C1CC2=O (stereo partly specified) | – | – | – | – | > 20.9 µM | – | – | – | – | 4.55 µM | 10.7 µM | 12.7 µM | – |
| CCC(CON(C)c1ccccc1)(SC)SC | – | – | – | – | > 100 µM | – | – | – | – | > 100 µM | > 100 µM | > 100 µM | – |
| CCc1cc(Cc2cc(Cl)c(NC(=O)C(=O)C3NC(=O)NC3=O)c(CC)c2)cc(Cl)c1NC(=O)C(=O)C1NC(=O)NC1=O (stereo unspecified) | > 100 | > 100 | 83.9 | – | 24.1 µM | 41.3 | > 100 | > 100 | > 100 | 54 µM | > 100 µM | > 100 µM | – |
| O=C(c1ccco1)N1CCCN(C(=O)c2ccco2)C1=S | – | – | – | – | > 100 µM | – | – | – | – | > 100 µM | – | > 100 µM | – |
| N/C(=N\S(=O)(=O)c1ccc(S(=O)(=O)c2ccccc2)s1)Nc1ccc(Cl)cc1 | – | – | – | – | 44.8 µM | – | – | – | – | 45.1 µM | 94.8 µM | 84.3 µM | – |
| CC[C@]12C=CCN3CC[C@@]4(c5cc(Br)c(OC)cc5N(C)[C@H]4[C@@](O)(C(=O)NN)[C@@H]1O)[C@@H]32 | – | – | – | – | > 100 µM | – | – | – | – | > 100 µM | > 100 µM | 69.3 µM | – |
| COC(=O)/C(=C\Nc1cccc(C)n1)S(=O)(=O)c1ccc(C)cc1 | – | – | – | – | > 100 µM | – | – | – | – | > 100 µM | > 100 µM | > 100 µM | – |
| CCCCC(=O)NS(=NC(=O)c1ccccc1)C(Cl)(Cl)Cl (stereo unspecified) | – | – | – | – | > 100 µM | – | – | – | – | > 100 µM | > 100 µM | > 100 µM | – |
| N#CCc1n[nH]c(Cc2ccccc2)n1 | – | – | – | – | > 100 µM | – | – | – | – | > 100 µM | > 100 µM | > 100 µM | – |
| O=C(c1ccc(Cl)cc1)c1ccc(OCCCOc2ccc(C(=O)c3ccc(Cl)cc3)cc2)cc1 | > 100 | – | > 100 | > 100 | > 100 µM | > 100 | > 100 | – | > 100 | > 100 µM | > 100 µM | > 100 µM | > 100 |
| C[C@H](CCC(=O)NCCS(=O)(=O)O)[C@H]1CC[C@H]2[C@@H]3CC[C@@H]4C[C@H](O)CC[C@]4(C)[C@H]3CC[C@]12C | – | – | – | – | > 100 µM | – | – | – | – | > 100 µM | > 100 µM | > 100 µM | – |
| Cc1c(Cl)c2ccccc2n1S(=O)(=O)c1ccccc1 | > 100 | – | > 100 | > 100 | > 100 µM | > 100 | – | – | > 100 | > 100 µM | > 100 µM | > 100 µM | > 100 |
| Oc1ccc(-c2nc(-c3cccnc3)c(-c3ccc(Cl)cc3)[nH]2)cc1O | – | – | – | – | 27.2 µM | – | – | – | – | 27.7 µM | 51.6 µM | – | – |
| COC(=O)CCC(=O)NC1=C(NCc2ccccc2)C(=O)c2ccccc2C1=O | – | – | – | – | 59.2 µM | – | – | – | – | > 100 µM | 49.8 µM | 43.8 µM | – |
| COc1ccc2nc3ccc(OC)cc3c(SCCO)c2c1 | – | – | – | – | > 100 µM | – | – | – | – | > 48.2 µM | > 100 µM | > 72.4 µM | – |
| COC(=O)c1c(O)ccc2c1c1c(n2Cc2ccccc2Cl)C(=O)c2ccccc2C1=O | – | – | – | – | – | – | – | – | – | 3.58 µM | 12.6 µM | 30 µM | – |
| CCSc1sc(=Nc2ccc(N=c3sc(C)c(SC)s3)cc2)sc1-c1ccc(C)cc1 | – | – | – | – | > 100 µM | – | – | – | – | > 100 µM | > 100 µM | > 100 µM | – |
| O=C1CCC2(CC1CC(Sc1ccccc1)Sc1ccccc1)OCCO2 (stereo unspecified) | – | – | – | – | > 100 µM | – | – | – | – | > 100 µM | > 100 µM | > 100 µM | – |
| OC(c1cc2ccccc2o1)c1cc2ccccc2s1 (stereo unspecified) | – | – | – | – | > 10 µM | – | – | – | – | > 10 µM | > 10 µM | > 10 µM | – |
